Measurements taken from publication PMC8911579, “(−)-Naringenin 4′,7-dimethyl Ether Isolated from Nardostachys jatamansi Relieves Pain through Inhibition of Multiple Channels” (Molecules, 2022).
Blank lines part the entries; values can stand above or below the compound they belong to.

Assays:
pro-inflammatory factors = test system: pro-inflammatory factors; set-up: method as in PMID 30193010; settings: compared to other naringenin derivatives; cited from earlier work
[1] = test system: endocannabinoid receptors; set-up: method as in PMID 25686780; settings: radioligand binding; cited from earlier work
pain = test system: pain; set-up: method as in PMID 30193010; settings: in vivo; cited from earlier work
opioid receptors = test system: opioid receptors; set-up: method as in PMID 25686780; settings: radioligand binding; cited from earlier work
TRPA1 channels = biological target: T1, TRPA1 channels (Homo sapiens, UniProt O75762); experiment: whole-cell patch-clamp, TRPA1 stably expressed in HEK293 cells; type: cell-based
T1 construct: expressed in transfected cells
T1 sequence (O75762 whole entry): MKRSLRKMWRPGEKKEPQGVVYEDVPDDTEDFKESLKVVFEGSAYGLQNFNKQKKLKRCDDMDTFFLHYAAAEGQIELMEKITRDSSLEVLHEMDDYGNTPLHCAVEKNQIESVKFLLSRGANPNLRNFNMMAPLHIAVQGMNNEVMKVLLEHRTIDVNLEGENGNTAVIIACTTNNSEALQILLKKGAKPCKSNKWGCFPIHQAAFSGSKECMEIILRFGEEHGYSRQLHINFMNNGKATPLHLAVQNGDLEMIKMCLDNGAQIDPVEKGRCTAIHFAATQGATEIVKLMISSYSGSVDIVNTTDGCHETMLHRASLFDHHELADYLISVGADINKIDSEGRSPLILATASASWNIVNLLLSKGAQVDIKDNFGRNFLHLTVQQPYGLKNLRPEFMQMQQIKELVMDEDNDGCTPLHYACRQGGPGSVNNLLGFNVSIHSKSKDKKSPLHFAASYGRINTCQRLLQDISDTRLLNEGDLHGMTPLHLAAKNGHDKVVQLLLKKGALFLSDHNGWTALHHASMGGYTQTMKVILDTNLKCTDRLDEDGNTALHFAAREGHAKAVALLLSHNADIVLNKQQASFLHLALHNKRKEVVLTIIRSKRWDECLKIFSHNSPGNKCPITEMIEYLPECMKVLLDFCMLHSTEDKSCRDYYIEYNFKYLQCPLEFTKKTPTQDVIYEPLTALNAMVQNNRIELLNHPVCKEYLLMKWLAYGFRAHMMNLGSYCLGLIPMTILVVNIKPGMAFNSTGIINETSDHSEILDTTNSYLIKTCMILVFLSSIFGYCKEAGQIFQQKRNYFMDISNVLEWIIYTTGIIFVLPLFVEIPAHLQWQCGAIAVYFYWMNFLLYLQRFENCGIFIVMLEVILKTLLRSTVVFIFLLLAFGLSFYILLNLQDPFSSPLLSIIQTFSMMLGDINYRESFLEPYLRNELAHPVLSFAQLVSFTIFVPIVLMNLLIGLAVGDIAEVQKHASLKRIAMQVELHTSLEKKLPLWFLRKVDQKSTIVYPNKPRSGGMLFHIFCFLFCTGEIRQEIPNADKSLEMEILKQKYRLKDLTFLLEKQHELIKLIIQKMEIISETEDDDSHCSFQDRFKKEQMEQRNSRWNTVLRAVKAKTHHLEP

[2] = test system: Nav channels and Kv channels in cortical neurons; set-up: method as in PMID 34747100; settings: cited from earlier work
sleep = test system: sleep; set-up: method as in PMID 34747100; settings: extracted from peanut stem and leaf; cited from earlier work

Structure (SMILES): COc1ccc([C@@H]2CC(=O)c3c(O)cc(OC)cc3O2)cc1 [(+)-NRG-DM, (+)-naringenin 4′,7-dimethyl ether]
production and release of pro-inflammatory factors (pro-inflammatory factors): did not influence the production and release of pro-inflammatory factors
affinity [1]: does not show affinity
analgesic activity (pain): showed analgesic activity
affinity (opioid receptors): does not show affinity

Structure (SMILES): C=CCN=C=S [AITC, allyl isothiocyanate]
effect on TRPA1 currents (TRPA1 channels; 10 µM, TRPA1 channel activator): induced

effect on TRPA1 currents (TRPA1 channels; 30 µM, TRPA1 channel inhibitor): inhibited
Structure (SMILES): CC(C)c1ccc(NC(=O)Cn2cnc3c2c(=O)n(C)c(=O)n3C)cc1 [HC030031]

Structure (SMILES): COc1ccc([C@@H]2CC(=O)c3c(O)cc(OC)cc3O2)cc1 [NRG-DM]
inhibitory activity on Nav channels versus Kv channels [2]: more potent than that on Kv channels
sleep (sleep): promoted sleep
